Read-outs that look alike come from different tables or passages of the source.
What was measured:
[1] = test system: EKVX; test: NCI 60 antitumor screening (single dose / five doses); type: cell-based; details: Homo sapiens; for inhibition at 10 µM: read-out: Growth inhibition percentage (GI %)
[2] = test system: SF-295; test: as above; type: cell-based; details: Homo sapiens
[3] = test system: BT-549; test: as above; type: cell-based; details: Homo sapiens
[4] = test system: 786-0; test: as above; type: cell-based; details: Homo sapiens
[5] = test system: COLO 205; test: as above; type: cell-based; details: Homo sapiens
[6] = test system: UO-31; test: as above; type: cell-based; details: Homo sapiens
[7] = test system: RPMI-8226; test: as above; type: cell-based; details: Homo sapiens
[8] = test system: RXF 393; test: as above; type: cell-based; details: Homo sapiens
[9] = test system: HCT-15; test: as above; type: cell-based; details: Homo sapiens
[10] = test system: MDA-MB-231/ATCC; test: as above; type: cell-based; details: Homo sapiens
[11] = test system: TK-10; test: NCI 60 antitumor screening (single dose); type: cell-based; details: Homo sapiens; TK-10 (renal cancer), single dose 10 μM; read-out: Growth inhibition percentage (GI %)
How it was run: (§1)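 Compounds were tested at a single 10 μM dose against the NCI 60-cell-line panel (nine tumour types), in triplicate. Growth was recorded as percent growth (G%) of treated cells, and growth inhibition was taken as GI% = 100 − G%.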

[12] = test system: OVCAR-8; test: NCI 60 antitumor screening (single dose); type: cell-based; details: Homo sapiens; OVCAR-8 (ovarian cancer), single dose 10 μM; read-out: Growth inhibition percentage (GI %)
How it was run: as §1

[13] = test system: PC-3; test: NCI 60 antitumor screening (single dose); type: cell-based; details: Homo sapiens; PC-3 (prostate cancer), single dose 10 μM; read-out: Growth inhibition percentage (GI %)
How it was run: as §1

[14] = test system: NCI-H460; test: NCI 60 antitumor screening (single dose); type: cell-based; details: Homo sapiens; NCI-H460 (non-small cell lung cancer), single dose 10 μM; read-out: Growth inhibition percentage (GI %)
How it was run: (§2)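 At one concentration (10 μM), compounds are run in triplicate on 60 human cancer lines per the NCI method. Treated-cell growth is recorded as G%. Reported inhibition equals 100 − G%.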

[15] = test system: HOP-62; test: NCI 60 antitumor screening (single dose); type: cell-based; details: Homo sapiens; HOP-62 (non-small cell lung cancer), single dose 10 μM; read-out: Growth inhibition percentage (GI %)
How it was run: as §2

[16] = test system: HCC-2998; test: NCI 60 antitumor screening (single dose); type: cell-based; details: Homo sapiens; HCC-2998 (colon cancer), single dose 10 μM; read-out: Growth inhibition percentage (GI %)
How it was run: as §2

[17] = test system: HL-60(TB); test: NCI 60 antitumor screening (single dose / five doses); type: cell-based; details: Homo sapiens
[18] = test system: LOX IMVI; test: as above; type: cell-based; details: Homo sapiens; for inhibition at 10 µM: read-out: Growth inhibition percentage (GI %)
[19] = test system: K-562; test: as above; type: cell-based; details: Homo sapiens
[20] = test system: MOLT-4; test: as above; type: cell-based; details: Homo sapiens
[21] = test system: SK-MEL-5; test: as above; type: cell-based; details: Homo sapiens
[22] = test system: MDA-MB-468; test: as above; type: cell-based; details: Homo sapiens
[23] = test system: HT29; test: as above; type: cell-based, human; details: Homo sapiens
[24] = test system: SW-620; test: as above; type: cell-based, human; details: Homo sapiens
[25] = test system: IGROV1; test: as above; type: cell-based; details: Homo sapiens
[26] = test system: UACC-257; test: as above; type: cell-based; details: Homo sapiens
[27] = test system: ACHN; test: as above; type: cell-based; details: Homo sapiens; for inhibition at 10 µM: read-out: Growth inhibition percentage (GI %)
[28] = test system: UACC-62; test: as above; type: cell-based; details: Homo sapiens

O=[N+]([O-])c1cc(/C=N/Nc2nc(N/N=C/c3ccc(Cl)c([N+](=O)[O-])c3)nc(N3CCCCC3)n2)ccc1Cl [compound 7i, 2,4-Bis[(E)-2-[(4-Chloro-3-nitrophenyl)methylidene]hydrazin-1-yl]-6-(piperidin-1-yl)-1,3,5-triazine] gave an inhibition at 10 µM ([1]; EKVX) of 22%, an inhibition at 10 µM ([2]; SF-295, read-out: Growth inhibition percentage (GI %)) of 6.78% and an inhibition at 10 µM ([3]; BT-549, read-out: Growth inhibition percentage (GI %)) of 2.15%. For the same molecule, the inhibition at 10 µM ([4]; 786-0, read-out: Growth inhibition percentage (GI %)) was -8.84%, the inhibition at 10 µM ([5]; COLO 205, read-out: Growth inhibition percentage (GI %)) was -0.27% and the inhibition at 10 µM ([6]; UO-31, read-out: Growth inhibition percentage (GI %)) was 52.5%. For the same molecule, the inhibition at 10 µM ([7]; RPMI-8226, read-out: Growth inhibition percentage (GI %)) was 81.7%, the inhibition at 10 µM ([8]; RXF 393, read-out: Growth inhibition percentage (GI %)) was 0.13% and the inhibition at 10 µM ([9]; HCT-15, read-out: Growth inhibition percentage (GI %)) was 50.3%. It also gave an inhibition at 10 µM ([10]; MDA-MB-231, read-out: Growth inhibition percentage (GI %)) of 51.7%, an inhibition at 10 µM [11] of 6.2% and an inhibition at 10 µM [12] of 69%. For the same molecule, the inhibition at 10 µM [13] was 46.6%, the inhibition at 10 µM [14] was 1.33% and the inhibition at 10 µM [15] was 56.3%. It also gave an inhibition at 10 µM [16] of 32.6%, an inhibition at 10 µM ([17]; HL-60, read-out: Growth inhibition percentage (GI %)) of 58.1% and an inhibition at 10 µM ([18]; LOX IMVI) of 34%. It also gave an inhibition at 10 µM ([19]; K562, read-out: Growth inhibition percentage (GI %)) of 68.3%, an inhibition at 10 µM ([20]; MOLT-4, read-out: Growth inhibition percentage (GI %)) of 57.7% and an inhibition at 10 µM ([21]; SK-MEL-5, read-out: Growth inhibition percentage (GI %)) of 48.9%. The inhibition at 10 µM ([22]; MDA-MB-468, read-out: Growth inhibition percentage (GI %)) was 31.2%, the inhibition at 10 µM ([23]; HT-29, read-out: Growth inhibition percentage (GI %)) was 92.6% and the inhibition at 10 µM ([24]; SW-620, read-out: Growth inhibition percentage (GI %)) was 36.3%. It also gave an inhibition at 10 µM ([25]; IGROV-1, read-out: Growth inhibition percentage (GI %)) of 47.2%, an inhibition at 10 µM ([26]; UACC-257, read-out: Growth inhibition percentage (GI %)) of 56.9% and an inhibition at 10 µM ([27]; ACHN) of 64.8%. It also gave an inhibition at 10 µM ([28]; UACC-62, read-out: Growth inhibition percentage (GI %)) of 34%.

Clc1cccc(/C=N/Nc2nc(N/N=C/c3cccc(Cl)c3)nc(N3CCOCC3)n2)c1 [compound 6d, 2,4-Bis[(E)-2-[(3-chlorophenyl)methylidene]hydrazin-1-yl]-6-(morpholin-4-yl)-1,3,5-triazine] was tested, and the inhibition at 10 µM ([1]; EKVX (non-small cell lung cancer), single dose 10 μM) was 27.8%, the GI50 ([1]; EKVX, five doses (0.01–100 μM), read-out: GI50) was 4230 nM and the inhibition at 10 µM ([2]; SF-295 (CNS cancer), single dose 10 μM, read-out: Growth inhibition percentage (GI %)) was 42.4%. For the same molecule, the GI50 ([2]; SF-295, five doses (0.01–100 μM), read-out: GI50) was 4130 nM, the inhibition at 10 µM ([3]; BT-549 (breast cancer), single dose 10 μM, read-out: Growth inhibition percentage (GI %)) was 7.26% and the GI50 ([3]; BT-549, five doses (0.01–100 μM), read-out: GI50) was 3220 nM. For the same molecule, the inhibition at 10 µM ([4]; 786-0, 786-0 (renal cancer), single dose 10 μM, read-out: Growth inhibition percentage (GI %)) was 69.4%, the GI50 ([4]; 786-0, five doses (0.01–100 μM), read-out: GI50) was 1070 nM and the inhibition at 10 µM ([5]; COLO 205 (colon cancer), single dose 10 μM, read-out: Growth inhibition percentage (GI %)) was 63.1%. For the same molecule, the GI50 ([5]; COLO 205, five doses (0.01–100 μM), read-out: GI50) was 1230 nM, the inhibition at 10 µM ([6]; UO-31 (renal cancer), single dose 10 μM, read-out: Growth inhibition percentage (GI %)) was 73.2% and the GI50 ([6]; UO-31, five doses (0.01–100 μM), read-out: GI50) was 1610 nM. For the same molecule, the inhibition at 10 µM ([7]; RPMI-8226 (leukaemia), single dose 10 μM, read-out: Growth inhibition percentage (GI %)) was 61.2%, the GI50 ([7]; RPMI-8226, five doses (0.01–100 μM), read-out: GI50) was 1900 nM and the inhibition at 10 µM ([8]; RXF 393 (renal cancer), single dose 10 μM, read-out: Growth inhibition percentage (GI %)) was 82.5%. The GI50 ([8]; RXF 393, five doses (0.01–100 μM), read-out: GI50) was 1000 nM, the inhibition at 10 µM ([9]; HCT-15 (colon cancer), single dose 10 μM, read-out: Growth inhibition percentage (GI %)) was 111% and the GI50 ([9]; HCT-15, five doses (0.01–100 μM), read-out: GI50) was 910 nM. It also gave a GI50 ([10]; MDA-MB-231/ ATCC, five doses (0.01–100 μM), read-out: GI50) of 9160 nM, an inhibition at 10 µM ([10]; MDA-MB-231/ATCC (breast cancer), single dose 10 μM, read-out: Growth inhibition percentage (GI %)) of 28.7% and an inhibition at 10 µM [11] of -0.21%. The inhibition at 10 µM [12] was 50.5%, the inhibition at 10 µM [13] was 58.5% and the inhibition at 10 µM [14] was 21.8%. It also gave an inhibition at 10 µM [15] of -9.83%, an inhibition at 10 µM [16] of 41% and an inhibition at 10 µM ([17]; HL-60(TB) (leukaemia), single dose 10 μM, read-out: Growth inhibition percentage (GI %)) of 110%. For the same molecule, the GI50 ([17]; HL-60(TB), five doses (0.01–100 μM), read-out: GI50) was 500 nM, the inhibition at 10 µM ([18]; LOX IMVI (melanoma), single dose 10 μM) was 67.4% and the GI50 ([18]; LOX IMVI, five doses (0.01–100 μM), read-out: GI50) was 2990 nM. For the same molecule, the inhibition at 10 µM ([19]; K562, K-562 (leukaemia), single dose 10 μM, read-out: Growth inhibition percentage (GI %)) was 88.2%, the GI50 ([19]; K562, K-562, five doses (0.01–100 μM), read-out: GI50) was 690 nM and the inhibition at 10 µM ([20]; MOLT-4 (leukaemia), single dose 10 μM, read-out: Growth inhibition percentage (GI %)) was 94%. For the same molecule, the GI50 ([20]; MOLT-4, five doses (0.01–100 μM), read-out: GI50) was 1490 nM, the inhibition at 10 µM ([21]; SK-MEL-5 (melanoma), single dose 10 μM, read-out: Growth inhibition percentage (GI %)) was 55.9% and the GI50 ([21]; SK-MEL-5, five doses (0.01–100 μM), read-out: GI50) was 1720 nM. The inhibition at 10 µM ([22]; MDA-MB-468 (breast cancer), single dose 10 μM, read-out: Growth inhibition percentage (GI %)) was 69.2%, the GI50 ([22]; MDA-MB-468, five doses (0.01–100 μM), read-out: GI50) was 1650 nM and the GI50 ([23]; HT-29, HT29, five doses (0.01–100 μM), read-out: GI50) was 1340 nM. It also gave an inhibition at 10 µM ([23]; HT-29, HT29 (colon cancer), single dose 10 μM, read-out: Growth inhibition percentage (GI %)) of 91.8%, a GI50 ([24]; SW-620, SW-620, five doses (0.01–100 μM), read-out: GI50) of 1780 nM and an inhibition at 10 µM ([24]; SW-620 (colon cancer), single dose 10 μM, read-out: Growth inhibition percentage (GI %)) of 81.9%. For the same molecule, the inhibition at 10 µM ([25]; IGROV-1, IGROV1 (ovarian cancer), single dose 10 μM, read-out: Growth inhibition percentage (GI %)) was 49.4%, the GI50 ([25]; IGROV-1, IGROV1, five doses (0.01–100 μM), read-out: GI50) was 4610 nM and the inhibition at 10 µM ([26]; UACC-257 (melanoma), single dose 10 μM, read-out: Growth inhibition percentage (GI %)) was 60.9%. For the same molecule, the GI50 ([26]; UACC-257, five doses (0.01–100 μM), read-out: GI50) was 2470 nM, the inhibition at 10 µM ([27]; ACHN (renal cancer), single dose 10 μM) was 74.2% and the GI50 ([27]; ACHN, five doses (0.01–100 μM), read-out: GI50) was 2110 nM. For the same molecule, the inhibition at 10 µM ([28]; UACC-62 (melanoma), single dose 10 μM, read-out: Growth inhibition percentage (GI %)) was 8.33% and the GI50 ([28]; UACC-62, five doses (0.01–100 μM), read-out: GI50) was 4540 nM.
